In ChEMBL document CHEMBL1201862, “PubChem BioAssay data set” (2004):
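Following 48 hours of exposure in 96-well plates, responses at five concentrations were used to interpolate endpoints linearly. GI50: concentration for 50% inhibition of growth.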 Calls of active or inactive are those of the source. No stated cut-off is given here; in the data, active = GI50 up to about 1.1 µM and inactive = higher.

Experiments:
Assay in all cases: NCI tumour cell line growth inhibition, 48 h
[1] = system: HT-29
[2] = system: K562
[3] = system: A498
[4] = system: IGROV-1
[5] = system: ACHN
[6] = system: MDA-MB-435
[7] = system: SF-295
[8] = system: MDA-N
[9] = system: UACC-62
[10] = system: SK-MEL-2
[11] = system: SW-620
[12] = system: OVCAR-3
[13] = system: HCT-116
[14] = system: M14
[15] = system: HOP-62
[16] = system: MOLT-4
[17] = system: NCI/ADR-RES
[18] = system: SN12C
[19] = system: SF-539

Cc1cc(C)c(S(=O)(=O)N2CCN(S(=O)(=O)c3c(C)cc(C)cc3C)OCCCCCO2)c(C)c1
GI50 [1]: > 100 µM (inactive)
GI50 [2]: > 100 µM (inactive)
GI50 [3]: > 100 µM (inactive)
GI50 [4]: > 100 µM (inactive)
GI50 [5]: > 100 µM (inactive)
GI50 [6]: > 100 µM (inactive)
GI50 [7]: > 100 µM (inactive)
GI50 [8]: > 100 µM (inactive)
GI50 [9]: > 100 µM (inactive)
GI50 [10]: > 100 µM (inactive)
GI50 [11]: > 100 µM (inactive)
GI50 [12]: > 100 µM (inactive)
GI50 [13]: > 100 µM (inactive)
GI50 [14]: > 100 µM (inactive)
GI50 [15]: > 100 µM (inactive)
GI50 [16]: > 100 µM (inactive)
GI50 [17]: > 100 µM (inactive)
GI50 [18]: > 100 µM (inactive)

COC(=O)c1c(O)c(C#N)c2[nH]c3ccccc3n2c1=O
GI50 [1]: > 100 µM (inactive)
GI50 [2]: > 100 µM (inactive)
GI50 [3]: > 100 µM (inactive)
GI50 [4]: > 100 µM (inactive)
GI50 [5]: > 100 µM (inactive)
GI50 [6]: > 100 µM (inactive)
GI50 [7]: > 100 µM (inactive)
GI50 [8]: > 100 µM (inactive)
GI50 [9]: > 100 µM (inactive)
GI50 [10]: > 100 µM (inactive)
GI50 [11]: > 100 µM (inactive)
GI50 [12]: > 100 µM (inactive)
GI50 [13]: > 100 µM (inactive)
GI50 [14]: > 100 µM (inactive)
GI50 [19]: > 100 µM (inactive)
GI50 [15]: > 100 µM (inactive)
GI50 [16]: > 100 µM (inactive)
GI50 [17]: > 100 µM (inactive)
GI50 [18]: > 100 µM (inactive)

NS(=O)(=O)c1ccc(NC(=O)Cc2nc3ccccc3s2)cc1
GI50 [1]: 18.3 µM (inactive)
GI50 [2]: 23.6 µM (inactive)
GI50 [3]: 21.1 µM (inactive)
GI50 [4]: 15.7 µM (inactive)
GI50 [5]: 15.5 µM (inactive)
GI50 [7]: 19 µM (inactive)
GI50 [9]: 15.7 µM (inactive)
GI50 [10]: 14.9 µM (inactive)
GI50 [11]: 17.1 µM (inactive)
GI50 [12]: 16.8 µM (inactive)
GI50 [13]: 16.6 µM (inactive)
GI50 [14]: 15.7 µM (inactive)
GI50 [19]: 18.3 µM (inactive)
GI50 [15]: 22.3 µM (inactive)
GI50 [16]: 20.1 µM (inactive)
GI50 [18]: 17.2 µM (inactive)

CN(C)CCCNc1ccc2ncn3c4ccccc4c(=O)c1c23
GI50 [1]: 4.88 µM (inactive)
GI50 [2]: 3.77 µM (inactive)
GI50 [3]: > 10 µM (inactive)
GI50 [4]: 7.66 µM (inactive)
GI50 [5]: 4.81 µM (inactive)
GI50 [7]: 6.3 µM (inactive)
GI50 [9]: 12.8 µM (inactive)
GI50 [10]: 13.6 µM (inactive)
GI50 [11]: 4.71 µM (inactive)
GI50 [12]: 16 µM (inactive)
GI50 [13]: 3.48 µM (inactive)
GI50 [14]: 9.66 µM (inactive)
GI50 [19]: 8.73 µM (inactive)
GI50 [15]: 33.6 µM (inactive)
GI50 [16]: 2.91 µM (inactive)
GI50 [18]: 11.5 µM (inactive)

N/C(=N\c1ccc(Cl)cc1)c1ccccc1N
GI50 [1]: > 100 µM (inactive)
GI50 [2]: > 100 µM (inactive)
GI50 [3]: > 100 µM (inactive)
GI50 [4]: > 100 µM (inactive)
GI50 [5]: > 100 µM (inactive)
GI50 [6]: > 100 µM (inactive)
GI50 [7]: > 100 µM (inactive)
GI50 [8]: > 100 µM (inactive)
GI50 [9]: > 100 µM (inactive)
GI50 [11]: > 100 µM (inactive)
GI50 [12]: > 100 µM (inactive)
GI50 [13]: > 100 µM (inactive)
GI50 [14]: > 100 µM (inactive)
GI50 [15]: > 100 µM (inactive)
GI50 [16]: > 100 µM (inactive)
GI50 [17]: > 100 µM (inactive)

O=c1c2ccccc2c(=O)c2c1cc(Cl)c1[nH]c3c([nH]c12)c(Cl)cc1c(=O)c2ccccc2c(=O)c13
GI50 [1]: > 100 µM (inactive)
GI50 [2]: > 100 µM (inactive)
GI50 [3]: > 100 µM (inactive)
GI50 [4]: > 100 µM (inactive)
GI50 [5]: > 100 µM (inactive)
GI50 [7]: > 100 µM (inactive)
GI50 [9]: > 100 µM (inactive)
GI50 [10]: > 100 µM (inactive)
GI50 [11]: > 100 µM (inactive)
GI50 [12]: > 100 µM (inactive)
GI50 [13]: > 100 µM (inactive)
GI50 [14]: > 100 µM (inactive)
GI50 [19]: > 100 µM (inactive)
GI50 [15]: > 100 µM (inactive)
GI50 [16]: > 100 µM (inactive)
GI50 [18]: > 100 µM (inactive)

C=C1CC[C@@H]2C(C)(C)CCC[C@@]2(C)[C@@H]1Cc1cc(O)ccc1O
GI50 [1]: 16.5 µM (inactive)
GI50 [2]: 3.44 µM (inactive)
GI50 [3]: 13.7 µM (inactive)
GI50 [4]: 2.13 µM (inactive)
GI50 [5]: 3.56 µM (inactive)
GI50 [7]: 10.2 µM (inactive)
GI50 [9]: 10.4 µM (inactive)
GI50 [10]: 2.04 µM (inactive)
GI50 [11]: 8.43 µM (inactive)
GI50 [12]: 5.31 µM (inactive)
GI50 [13]: 4.62 µM (inactive)
GI50 [14]: 11.8 µM (inactive)
GI50 [19]: 1.93 µM (inactive)
GI50 [15]: 9.59 µM (inactive)
GI50 [16]: 0.912 µM (active)
GI50 [18]: 4.27 µM (inactive)

O=C1c2ccccc2C(=O)c2sc(Nc3cccc(Cl)c3)nc21
GI50 [1]: 3.34 µM (inactive)
GI50 [2]: 1.57 µM (inactive)
GI50 [3]: 2.07 µM (inactive)
GI50 [4]: 2.07 µM (inactive)
GI50 [5]: 1.61 µM (inactive)
GI50 [7]: 1.62 µM (inactive)
GI50 [9]: 1.73 µM (inactive)
GI50 [10]: 1.79 µM (inactive)
GI50 [11]: 0.802 µM (active)
GI50 [12]: 1.12 µM (active)
GI50 [13]: 1.82 µM (inactive)
GI50 [14]: 1.82 µM (inactive)
GI50 [19]: 1.93 µM (inactive)
GI50 [15]: 1.82 µM (inactive)
GI50 [16]: 0.492 µM (active)
GI50 [18]: 1.51 µM (inactive)

C=C1CCC2C(C)(CO)C(O)CCC2(C)C1C/C=C1/CCOC1=O (stereo not given)
GI50 [1]: > 100 µM (inactive)
GI50 [2]: > 100 µM (inactive)
GI50 [3]: > 100 µM (inactive)
GI50 [4]: > 100 µM (inactive)
GI50 [5]: > 100 µM (inactive)
GI50 [7]: > 100 µM (inactive)
GI50 [9]: > 100 µM (inactive)
GI50 [10]: > 100 µM (inactive)
GI50 [11]: > 100 µM (inactive)
GI50 [12]: > 100 µM (inactive)
GI50 [13]: > 100 µM (inactive)
GI50 [14]: > 100 µM (inactive)
GI50 [19]: > 100 µM (inactive)
GI50 [15]: > 100 µM (inactive)
GI50 [16]: > 100 µM (inactive)
GI50 [18]: > 100 µM (inactive)

COc1ccc(OC)c(CNc2ccc(O)c(C(=O)NCCc3ccc(F)cc3)c2)c1
GI50 [1]: 18 µM (inactive)
GI50 [2]: 3.74 µM (inactive)
GI50 [3]: 16.4 µM (inactive)
GI50 [4]: 5.68 µM (inactive)
GI50 [5]: 24 µM (inactive)
GI50 [6]: 2.74 µM (inactive)
GI50 [7]: 13.7 µM (inactive)
GI50 [8]: 4.06 µM (inactive)
GI50 [9]: 8.89 µM (inactive)
GI50 [10]: 8.15 µM (inactive)
GI50 [11]: 15.7 µM (inactive)
GI50 [12]: 7.57 µM (inactive)
GI50 [13]: 12.1 µM (inactive)
GI50 [14]: 10.4 µM (inactive)
GI50 [19]: 15.8 µM (inactive)
GI50 [15]: 4.08 µM (inactive)
GI50 [16]: 4.05 µM (inactive)
GI50 [17]: 10.1 µM (inactive)
GI50 [18]: 19.5 µM (inactive)

NC(=O)C12CCC1C1CCCCC12N1CCOCC1 (stereo not given)
GI50 [1]: > 100 µM (inactive)
GI50 [2]: > 100 µM (inactive)
GI50 [3]: > 100 µM (inactive)
GI50 [4]: > 100 µM (inactive)
GI50 [5]: > 100 µM (inactive)
GI50 [7]: > 100 µM (inactive)
GI50 [9]: > 100 µM (inactive)
GI50 [10]: > 100 µM (inactive)
GI50 [11]: > 100 µM (inactive)
GI50 [12]: > 100 µM (inactive)
GI50 [13]: > 100 µM (inactive)
GI50 [14]: > 100 µM (inactive)
GI50 [19]: > 100 µM (inactive)
GI50 [15]: > 100 µM (inactive)
GI50 [16]: > 100 µM (inactive)
GI50 [18]: > 100 µM (inactive)

CCCNc1ncnc2c1cnn2C
GI50 [1]: > 100 µM (inactive)
GI50 [2]: > 100 µM (inactive)
GI50 [3]: > 100 µM (inactive)
GI50 [4]: > 100 µM (inactive)
GI50 [5]: > 100 µM (inactive)
GI50 [7]: > 100 µM (inactive)
GI50 [9]: > 100 µM (inactive)
GI50 [10]: > 100 µM (inactive)
GI50 [11]: > 100 µM (inactive)
GI50 [12]: > 100 µM (inactive)
GI50 [13]: > 100 µM (inactive)
GI50 [14]: > 100 µM (inactive)
GI50 [19]: > 100 µM (inactive)
GI50 [15]: > 100 µM (inactive)
GI50 [16]: > 100 µM (inactive)
GI50 [18]: > 100 µM (inactive)
